{
  "source": "patent US10907219B2",
  "about": "“Compositions and methods for controlling cellular function” (STC.UNM, priority 2014, dated 2021)",
  "key": {"[1]": {"tested_on": "CHO cells transfected with ABA-inducible luciferase constructs", "assay": "ABA-inducible luciferase assay", "type": "cell-based"}, "[2]": {"tested_on": "NES-ABI and PYL-eGFP in CHO cells", "assay": "H2O2-induced ABA-mediated eGFP nuclear exporting (NES localization)", "type": "cell-based", "procedure": "Various cellular events are regulated by the dynamic sub-cellular translocation of proteins. To test if protein translocation can be controlled by H2O2, we used a known ABA-inducible eGFP nuclear exporting system consisting of NES-ABI and PYL-eGFP DNA constructs (FIG. 2a; Liang et al., 2011, Sci. Signal. 4, rs2). CHO cells were transfected with both plasmids for 24 hours and then incubated without additive, or with 10 μM of ABA, ABA-HP, or ABA-HP plus 10 eq of H2O2 for one hour.\nNES localization experiments: CHO cells were seeded in 24-well plates at 50 K/well with coverslip for 24 hours. 0.4 μg NES-ABI and 0.2 μg eGFP-PYL (FIG. 2a, ii) of DNA plasmid were used for each well, with 30 μL of Opti-MEM (Life Technologies, Carlsbad, Calif.) and 1.8 μL of PEI. After incubation at room temperature for 15 min, the mixture was added to the cells and cultured for 24 hours. Then, 10 μM ABA-HP was added to the cells 10 minutes prior to the addition of 10 μM ABA and 100 μM of H2O2, or 10 μM GA-HP was added to the cells 10 minutes prior to the addition of 10 μM GA-AM and 100 μM of H2O2. Slides were made 30 minutes after addition of compounds and images were taken the next day.\nAn Axio Observer D1 fluorescent microscope (Carl Zeiss AG, Oberkochen, Germany) outfitted with HBO 100 microscopy illumination system (Carl Zeiss AG, Oberkochen, Germany; GFP: excitation 470/40 and emission 525/50) was used to analyze GFP expression and NES localization. A 20× objective was used to analyze GFP expression. A 63× objective was used for NES localization."}, "[3]": {"tested_on": "EGFP-PYL and NES-ABI in CHO cells", "assay": "Light-induced EGFP-PYL nuclear export (fixed cells)", "type": "cell-based", "settings": "for subcellular location of EGFP-PYL: CHO cells; for reversibility of EGFP nuclear exportation: washed with fresh media", "procedure": "The ability to use light to control protein translocation through ABA-DMNB uncaging was evaluated next. Plasmids expressing EGFP-tagged PYL and nuclear export sequence (NES) peptide-linked ABI (FIG. 22A) were transfected into CHO cells. The transfected cells were then either treated or not treated with ABA, ABA-DMNB, or ABA-DMNB and irradiated for 60 seconds. Fluorescence microscopy analysis was used to determine subcellular locations of EGFP fusion proteins. […] Furthermore, the observed nuclear export of EGFP fusion protein can be readily reversed by washing away the uncaged ABA using fresh media. Thus, protein translocation can be induced by light through photo-uncaged ABA and can be readily reversed.\nSlide preparation: Cells were grown on glass coverslips in 24-well plates. The coverslips were washed with phosphate-buffered saline (PBS) and fixed with 4% paraformaldehyde (PFA, 300 μL, prepared in PBS) at room temperature for 20 min. The cells were then washed twice with PBS and incubated with 1×DAPI in the dark at the room temperature for 5 min. After a final wash with PBS, the coverslips were mounted on a glass slide with VECTASHIELD (Vector Laboratories, Inc., Burlingame, Calif.) mounting media and allowed to stand for two hours in the dark before imaging.\nFluorescence microscopy imaging: Slides were imaged with an Axio Observer (Carl Zeiss AG, Oberkochen, Germany) microscope or with am LSM 510 Meta confocal microscope (Carl Zeiss AG, Oberkochen, Germany) mounted on an AxioObserver inverted microscope with a 63× oil objective. Images were taken with DAPI and GFP channels.\nStatistical analysis of cell population: Cell were categorized as displaying nuclear export of EGFP when the fluorescent intensity of the nucleus was less than 60% of the intensity of the cytoplasm. […] Cells were counted from three separate experiments, with N>50 for each experiment."}, "[4]": {"assay": "Chemical stability of caged ABA in HEPES buffer/DMSO in the dark (HPLC)", "type": "physicochemical", "settings": "70% HEPES buffer/30% DMSO, 37° C., 24 h", "procedure": "FIG. 26. Chemical stability of ABA-DMNB. ABA-DMNB was incubated in 70% HEPES buffer/30% DMSO at 37° C. for 24 h in the dark. The samples were analyzed by HPLC.\nFIG. 32. Chemical stability of ABA-DEACM. ABA-DEACM was incubated in 70% HEPES buffer/30% DMSO at 37° C. for 24 h in the dark. The samples were analyzed by HPLC and absorbance was monitored at 250 nm.\nHPLC analysis: Reversed-phase HPLC was performed on an ACCLAIM 120 (4.6×100 mm) C18 column (Thermo Fisher Scientific, Waltham, Mass.) with an ULTIMATE 3000 pump system, including a Variable Wavelength Detector 3100, Degasser 1210, and Autosampler SPS 3000 (Thermo Fisher Scientific, Waltham, Mass.). A mixture of water and acetonitrile containing 0.1% TFA was used as the eluent. Absorbance at 250 nm was used to monitor the elution of the molecules. The method used an increase in acetonitrile from 5% to 95% over 15 minutes to elute the molecules at a flow rate of 0.7 mL/min. The peaks for the molecules were integrated by using Chromeleon software (Thermo Fisher Scientific, Waltham, Mass.). The molar absorptivity of both free and caged ABA at 250 nm were measured, which was used to calculate the concentration of each species from the intensity of absorbance at 250 nm. […]"}, "[5]": {"settings": "10 μM, compound alone, CHO cells"}},
  "note": "Entries after “also recorded” stand apart in the source; their conditions may differ.",
  "data": [
    {"smiles": "CC1=CC(=O)CC(C)(C)C1(O)/C=C/C(C)=C\\C(=O)O", "note": "(stereo not drawn) [ABA, abscisic acid, reference compound]", "values": [
      {"measurement": "dose dependence of gene expression", "setting": "[1]; increasing dosages, not irradiated", "result": "dose-dependent induction of gene expression"},
      {"measurement": "sub-cellular location of PYL-eGFP", "setting": "[2]; [5]", "result": "localized out of the nucleus"},
      {"measurement": "subcellular location of EGFP-PYL", "setting": "[3]; not irradiated", "result": "exported out of the nucleus; also recorded: markedly decreased intensities of EGFP in the nuclei within 15 minutes"},
      {"measurement": "reversibility of EGFP nuclear exportation", "setting": "[3]; not irradiated", "result": "reversed following three washes (within 30 minutes)"}
    ]},
    {"smiles": "CCN(CC)c1ccc2c(COC(=O)/C=C(C)\\C=C\\[C@@]3(O)C(C)=CC(=O)CC3(C)C)cc(=O)oc2c1", "note": "[ABA-DEACM]", "values": [
      {"measurement": "chemical stability in biological buffer in the dark", "setting": "[4]", "result": "no chemical decomposition; also recorded: stable chemically"},
      {"measurement": "EGFP-PYL nuclear export", "setting": "[3]; 10 μM, 405 nm light irradiation, fixed CHO cells", "result": "ability to induce EGFP-PYL nuclear export"}
    ]},
    {"smiles": "COc1cc(COC(=O)/C=C(C)\\C=C\\[C@@]2(O)C(C)=CC(=O)CC2(C)C)c([N+](=O)[O-])cc1OC", "note": "[ABA-DMNB]", "values": [
      {"measurement": "chemical stability in biological buffer in the dark", "setting": "[4]", "result": "no chemical decomposition; also recorded: stable at 37 °C in biological buffer in the dark for 24 hours"},
      {"measurement": "dose dependence of luciferase expression", "setting": "[1]; increasing concentrations, with irradiation", "result": "corresponding increases in the level of luciferase expression"},
      {"measurement": "luciferase expression", "setting": "[1]; irradiated 365 nm UV 120 seconds in cell culture, twelve hours", "result": "induced luciferase expression"},
      {"measurement": "subcellular location of EGFP-PYL", "setting": "[3]; 365 nm UV irradiation 60 seconds", "result": "exported out of the nucleus; also recorded: markedly decreased intensities of EGFP in the nuclei within 15 minutes"},
      {"measurement": "reversibility of EGFP nuclear exportation", "setting": "[3]; after UV irradiation", "result": "reversed following three washes (within 30 minutes)"},
      {"measurement": "subcellular location of EGFP-PYL", "setting": "[3]; not irradiated", "result": "EGFP distribution throughout the whole cells"},
      {"measurement": "subcellular location of EGFP-PYL", "setting": "[3]; not irradiated, listed as ABADMNB", "result": "distributed throughout the cell"}
    ]},
    {"smiles": "CC1=CC(=O)CC(C)(C)[C@@]1(O)/C=C/C(C)=C\\C(=O)OCc1ccc(B2OC(C)(C)C(C)(C)O2)cc1", "note": "[ABA-HP]", "values": [
      {"measurement": "sub-cellular location of PYL-eGFP", "setting": "[2]; 10 μM plus 10 eq of H2O2, CHO cells", "result": "caused rapid nuclear export"},
      {"measurement": "sub-cellular location of PYL-eGFP", "setting": "[2]; [5]", "result": "did not change the sub-cellular location of eGFP-PYL"}
    ]}
  ]
}
